Test results: BigSolDB 2.1

CCOc1ccc2ccccc2c1C(=O)O
solubility (mole fraction)
Conditions | 278.15 K | 283.15 K | 288.15 K | 293.15 K | 298.15 K | 303.15 K | 308.15 K | 313.15 K | 318.15 K | 323.15 K
in acetone | 0.0535 | 0.0606 | 0.0691 | 0.0781 | 0.089 | 0.0994 | 0.112 | 0.127 | 0.142 | 0.159
in acetonitrile | 0.00615 | 0.00747 | 0.00921 | 0.011 | 0.0135 | 0.0165 | 0.022 | 0.0254 | 0.0308 | 0.0378
in ethanol | 0.0268 | 0.0325 | 0.0392 | 0.0469 | 0.0565 | 0.0688 | 0.0836 | 0.101 | 0.119 | 0.136
in ethyl acetate | 0.015 | 0.0174 | 0.0204 | 0.0239 | 0.0279 | 0.0331 | 0.038 | 0.0447 | 0.0526 | 0.0606
in isobutanol | 0.0111 | 0.0138 | 0.0172 | 0.0208 | 0.0256 | 0.0322 | 0.0396 | 0.0508 | 0.0623 | 0.0779
in isopropanol | 0.0148 | 0.0181 | 0.0228 | 0.0287 | 0.036 | 0.0459 | 0.058 | 0.0733 | 0.0901 | 0.112
in isopropyl acetate | 0.0118 | 0.0136 | 0.0155 | 0.0185 | 0.0213 | 0.0245 | 0.029 | 0.0333 | 0.0389 | 0.0454
in methanol | 0.0304 | 0.037 | 0.0443 | 0.0552 | 0.0671 | 0.0821 | 0.0951 | 0.114 | 0.134 | 0.151
in methyl acetate | 0.0153 | 0.0181 | 0.0215 | 0.0254 | 0.0301 | 0.0356 | 0.0417 | 0.0495 | 0.0587 | 0.0693
in n-pentanol | 0.0174 | 0.0205 | 0.0248 | 0.0296 | 0.0356 | 0.0431 | 0.052 | 0.0632 | 0.0744 | 0.0902
in n-propanol | 0.0212 | 0.0236 | 0.0283 | 0.0345 | 0.0424 | 0.0511 | 0.0632 | 0.0779 | 0.092 | 0.114
in n-propyl acetate | 0.0129 | 0.0149 | 0.0177 | 0.0204 | 0.024 | 0.028 | 0.0322 | 0.0381 | 0.0445 | 0.0516
